Counter-ions that a name gives are not always drawn.
Columns and labels:
[1] = system: melanoma B16F0 cells; assay: B16F0 melanoma tumor model in mice; conditions: day 18 of treatment, 0.5 mg/kg s.c. twice a week
Description: Female C57BL/6 mice (5-6 weeks old, 14-18 g) were obtained from Harlan Laboratories Ltd (Jerusalem, Israel). Mice were housed under humidity- and temperature-controlled conditions, and the light/dark cycle was set at 12-h intervals.
B16F0 melanoma cells were maintained in RPMI 1640 medium supplemented with 10% bovine serum and 200 μM L-glutamine, 10 units/mL penicillin, and 10 μg/mL streptomycin (Biological Industries, Beth Ha'Emek, Israel). The cells were kept at 37° C. in a 5% CO2 humidified atmosphere.
The mice were inoculated with melanoma B16F0 cells (1×10^6) subcutaneously in the right flank of the mice. After tumors had been visualized a week later, the mice were weighed and measured for tumor size (244±213 mm^3), and were randomly sorted into three groups. […] Tumor volumes and mouse body weights were measured routinely before each treatment. Measurement of tumor size was performed with a caliper in two dimensions, and individual tumor volumes (V) were calculated by the formula: V=[length×(width)^2]×π/6.
The statistical differences between the therapeutic effects of different treatments on tumor growth were determined by two-tailed Student's test. […]

[2] = system: MCF-7 cells (cell line of breast cancer); assay: MTT cytotoxicity assay in MCF-7 cell line; format: cell-based; conditions: MCF-7, at 1 mg/ml
Description: The direct effect of curcumin and doxorubicin on the viability of cultured cells was assessed in vitro using the MCF-7 cells (cell line of breast cancer). […] Fresh cell medium was then prepared with test compounds in appropriate dilutions (equivalent to their concentrations as determined by HPLC). Cell growth after 48 h was assayed by MTT assay [3-(4,5-Dimethylthiazol-2-yl)-2,5-diphenyltetrazolium bromide, Sigma-Aldrich] and was evaluated by measuring the absorbance at 540 nm after 3 h of incubation in a medium containing 0.5 mg/ml MTT (Sunrise™ absorbance plate reader, TECAN). […] FIG. 13C presents dose response behavior of DOX-loaded and unloaded NPs vs. solutions at various concentrations after 24-h and 48-h incubation.

[3] = topically applied, eye drops; cited from earlier work
[4] = Dynamic dialysis of chloramphenicol, apparent dialysis bag permeability constant; format: physicochemical; conditions: dialysis bag 10K MWCO, NaCl 0.9% w/v
Description: The amount of drug released from the NPs was determined by a dynamic dialysis technique monitoring the drug concentration in the receiver solution (i.e., outer solution surrounding a dialysis bag). The method is based on the assumption that drug is first released from the NPs into the donor solution (i.e., the dissolution medium inside the dialysis bag). Subsequently, the drug can diffuse through the dialysis bag from the donor to the receiver.
A sample of 3 ml of the NP dispersion (1:1 diluted with saline) was introduced into a dialysis bag (SnakeSkin Dialysis Tubing, 10K MWCO, 22 mm, Thermo Fisher Scientific, Rockford, USA). The sample was dialyzed against 60 ml of saline solution (NaCl solution, 0.9%, w/v) for 7 hours. The receiver solution was agitated by magnetic stirring throughout the experimental procedure. Samples of 200 μl were withdrawn from the receiver solution at predetermined time intervals and their drug concentrations were measured by HPLC.
The apparent dialysis bag permeability constant (k′) was calculated according to the method described in ‘Materials and Methods’ section 2.6. […]

SMILES | survival [1] [%] | cytotoxicity [2] | bioavailability [3] | half-life [3] [h] | apparent permeability constant (k′) [4] [h⁻¹]
COc1cccc2c1C(=O)c1c(O)c3c(c(O)c1C2=O)C[C@@](O)(C(=O)CO)C[C@@H]3O[C@H]1C[C@H](N)[C@H](O)[C@H](C)O1 [DOX-HCl solution, doxorubicin] | 58 | highly cytotoxic | – | – | –
O=C(N[C@H](CO)[C@H](O)c1ccc([N+](=O)[O-])cc1)C(Cl)Cl [chloramphenicol] | – | – | 1-10% | 1.5 to 5 | 1.207 ± 0.018
